Our source for the IC95 and IC50 values is ChEMBL document CHEMBL1136401 (Bioorg Med Chem Lett, 2003).

Assay [1] concerns MT4. The assay is described as follows: Inhibition of the spread of HIV infection (K-60C) in MT-4 human T-lymphoid cells. In kind it is functional. As to conditions: read-out: CIC95.
The test system of assay [2] is MT4. Put plainly: Inhibition of the spread of HIV infection wild type(WT) in MT-4 human T-lymphoid cells. In kind it is functional. Particulars: read-out: CIC95.
Assay [3] has as its system MT4. The assay is described as follows: Inhibition of the spread of HIV infection (V-18C) in MT-4 human T-lymphoid cells. In kind it is functional. Particulars: read-out: CIC95.
Assay [4] concerns the target T1, Human immunodeficiency virus type 1 protease (Human immunodeficiency virus 1, UniProt Q72874). Put plainly: Inhibition of HIV protease of HIV K-60C mutant strain.
Assay [5] concerns the target T1, Human immunodeficiency virus type 1 protease. Put plainly: Inhibition of HIV protease of HIV V-18C mutant strain.
Assay [6] has the same target. Put plainly: Inhibition of wild type HIV protease.

Consider `Cc1noc(C)c1CNC(=O)[C@H]1N(C(=O)[C@@H](O)C[C@@H](Cc2ccccc2)C(=O)N[C@H]2c3ccccc3OC[C@H]2O)CSC1(C)C`, for which the IC95 in assay [1] is 250 nM; in assay [2] it was 156 nM; in assay [3], 62 nM.

Broadly, the IC50 is the concentration at which inhibition is half-maximal. Read a low IC50 as greater potency in that assay. Regarding `Cc1cccc(C)c1CNC(=O)[C@H]1N(C(=O)[C@@H](O)C[C@@H](Cc2ccccc2)C(=O)N[C@H]2c3ccccc3C[C@H]2O)CSC1(C)C`, the IC95 is 125 nM in assay [1], 31 nM in assay [2] and 31 nM in assay [3]. In addition, the values for the IC50 in assay [4], in assay [5] and in assay [6] were 0.062 nM, 0.062 nM and 0.04 nM, respectively.

Regarding `Cc1cccc(C)c1CNC(=O)[C@H]1N(C(=O)[C@@H](O)C[C@@H](Cc2ccccc2)C(=O)N[C@H]2c3ccccc3OC[C@H]2O)CSC1(C)C`, the values for the IC95 in assay [1], in assay [2] and in assay [3] were 500 nM, 47 nM and 62 nM, respectively.

Consider `Cc1ccnc(C)c1CNC(=O)[C@H]1N(C(=O)[C@@H](O)C[C@@H](Cc2ccccc2)C(=O)N[C@H]2c3ccccc3OC[C@H]2O)CSC1(C)C`, for which the values for the IC95 in assay [1], in assay [2] and in assay [3] were 250 nM, 187 nM and 125 nM, respectively.

Turning to `Cc1nsc(C)c1CNC(=O)[C@H]1N(C(=O)[C@@H](O)C[C@@H](Cc2ccccc2)C(=O)N[C@H]2c3ccccc3OC[C@H]2O)CSC1(C)C`, the IC95 in assay [1] worked out at 250 nM; in assay [2] it was 16 nM; in assay [3], 31 nM.

For `CC1(C)SCN(C(=O)[C@@H](O)C[C@@H](Cc2ccccc2)C(=O)N[C@H]2c3ccccc3OC[C@H]2O)[C@@H]1C(=O)NCc1c(Cl)cccc1Cl`, the IC95 in assay [1] is 250 nM; in assay [2], under 8 nM; in assay [3], 16 nM.

Turning to `Cc1ccccc1CNC(=O)[C@H]1N(C(=O)[C@@H](O)C[C@@H](Cc2ccccc2)C(=O)N[C@H]2c3ccccc3OC[C@H]2O)CSC1(C)C`, the IC95 in assay [1] came out at 125 nM; in assay [2], 19 nM; in assay [3] it was 41 nM.

For `Cc1cccc(Cl)c1CNC(=O)[C@H]1N(C(=O)[C@@H](O)C[C@@H](Cc2ccccc2)C(=O)N[C@H]2c3ccccc3OC[C@H]2O)CSC1(C)C`, the IC95 in assay [1] is 46 nM; in assay [2] it was 31 nM; in assay [3], 23 nM.

For the molecule `CC1(C)SCN(C(=O)[C@@H](O)C[C@@H](Cc2ccccc2)C(=O)N[C@H]2c3ccccc3OC[C@H]2O)[C@@H]1C(=O)NCc1c(F)cccc1F`, the IC95 turned out to be 250 nM in assay [1], 23 nM in assay [2] and 62 nM in assay [3].

Take `Cc1cccc(C)c1CNC(=O)[C@H]1N(C(=O)[C@H](O)C[C@@H](Cc2ccccc2)C(=O)N[C@H]2c3ccccc3OC[C@H]2O)CSC1(C)C`: the IC95 in assay [1] is 70 nM; in assay [2] it was 15 nM; in assay [3], 15 nM.

With `Cc1ccccc1CNC(=O)[C@H]1N(C[C@@H](O)C[C@@H](Cc2ccccc2)C(=O)N[C@H]2c3ccccc3OC[C@H]2O)CSC1(C)C`, the IC95 was over 1000 nM in assay [1], 250 nM in assay [2] and 1000 nM in assay [3]. The IC50 in assay [4] came to 7.9 nM; in assay [5], 8.8 nM; in assay [6] it was 0.52 nM.

Regarding `CC(C)(C)NC(=O)[C@@H]1CN(Cc2cccnc2)CCN1C[C@@H](O)C[C@@H](Cc1ccccc1)C(=O)N[C@H]1c2ccccc2C[C@H]1O`, the IC95 was 1000 nM in assay [1], 45 nM in assay [2] and 890 nM in assay [3].
